{"source": "patent US12503484B2", "about": "“Androstane derivatives with activity as pure or predominantly pure stimulators of SERCA2a for the treatment of heart failure” (Seismic Pharmaceuticals, priority 2019, dated 2025)", "key": {"Adenosine A2A": {"biological_target": "Adenosine A2A (Homo sapiens (Human), UniProt P29274)", "sequence (P29274 whole entry)": "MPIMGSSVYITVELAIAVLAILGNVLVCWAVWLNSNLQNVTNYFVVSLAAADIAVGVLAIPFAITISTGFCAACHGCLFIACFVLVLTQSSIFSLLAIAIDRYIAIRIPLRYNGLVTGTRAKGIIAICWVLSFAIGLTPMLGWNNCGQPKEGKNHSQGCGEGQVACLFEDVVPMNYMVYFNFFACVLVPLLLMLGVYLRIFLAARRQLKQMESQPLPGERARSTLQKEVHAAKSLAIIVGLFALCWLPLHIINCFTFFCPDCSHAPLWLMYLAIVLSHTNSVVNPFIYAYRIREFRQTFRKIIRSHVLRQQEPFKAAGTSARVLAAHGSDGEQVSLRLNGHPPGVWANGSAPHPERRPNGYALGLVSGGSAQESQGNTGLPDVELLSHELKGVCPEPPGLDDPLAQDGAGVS", "assay": "Receptor binding assay panel: Adenosine A2A"}, "[1]": {"biological_target": "Peptidase, Angiotensin Converting Enzyme (Oryctolagus cuniculus (Rabbit), UniProt P12822)", "sequence (P12822 34-1310)": "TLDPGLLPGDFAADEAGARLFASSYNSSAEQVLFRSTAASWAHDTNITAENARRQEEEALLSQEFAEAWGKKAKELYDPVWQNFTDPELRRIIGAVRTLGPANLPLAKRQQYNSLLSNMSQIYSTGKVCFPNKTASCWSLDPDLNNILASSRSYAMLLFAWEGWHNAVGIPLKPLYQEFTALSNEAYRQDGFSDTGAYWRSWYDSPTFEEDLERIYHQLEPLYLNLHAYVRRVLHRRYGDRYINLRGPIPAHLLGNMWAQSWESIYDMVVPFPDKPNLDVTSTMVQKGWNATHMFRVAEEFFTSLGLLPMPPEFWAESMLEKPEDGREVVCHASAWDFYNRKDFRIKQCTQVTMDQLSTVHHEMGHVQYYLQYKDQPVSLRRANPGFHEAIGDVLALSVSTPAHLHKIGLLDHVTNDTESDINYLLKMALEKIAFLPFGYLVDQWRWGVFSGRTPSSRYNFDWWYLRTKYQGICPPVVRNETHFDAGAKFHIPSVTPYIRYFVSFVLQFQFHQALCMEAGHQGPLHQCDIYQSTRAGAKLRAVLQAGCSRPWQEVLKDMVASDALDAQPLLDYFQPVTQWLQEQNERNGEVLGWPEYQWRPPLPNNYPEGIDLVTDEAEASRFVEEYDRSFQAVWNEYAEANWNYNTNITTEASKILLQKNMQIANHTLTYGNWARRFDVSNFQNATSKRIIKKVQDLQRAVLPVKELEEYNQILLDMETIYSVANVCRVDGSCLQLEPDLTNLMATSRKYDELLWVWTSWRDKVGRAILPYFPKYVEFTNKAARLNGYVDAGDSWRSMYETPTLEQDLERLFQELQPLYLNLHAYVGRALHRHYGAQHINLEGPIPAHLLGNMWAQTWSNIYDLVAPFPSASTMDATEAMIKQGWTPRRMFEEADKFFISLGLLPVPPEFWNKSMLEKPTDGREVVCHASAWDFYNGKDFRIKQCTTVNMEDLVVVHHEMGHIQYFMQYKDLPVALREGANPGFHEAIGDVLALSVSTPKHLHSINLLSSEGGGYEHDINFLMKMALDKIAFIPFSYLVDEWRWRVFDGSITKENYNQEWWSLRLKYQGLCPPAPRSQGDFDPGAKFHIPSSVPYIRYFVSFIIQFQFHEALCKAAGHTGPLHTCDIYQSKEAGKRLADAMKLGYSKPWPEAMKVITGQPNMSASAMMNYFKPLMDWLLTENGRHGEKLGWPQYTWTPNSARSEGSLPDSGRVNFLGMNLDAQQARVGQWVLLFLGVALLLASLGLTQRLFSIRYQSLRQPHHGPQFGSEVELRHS", "assay": "Receptor binding assay panel: Peptidase, Angiotensin Converting Enzyme", "assay_type": "biochemical"}, "[2]": {"biological_target": "Protein Tyrosine Kinase, Src (Homo sapiens (Human), UniProt P12931)", "assay": "Receptor binding assay panel: Protein Tyrosine Kinase, Src", "assay_type": "biochemical"}, "Sigma σ1": {"biological_target": "Sigma σ1 (Homo sapiens (Human), UniProt Q99720)", "assay": "Receptor binding assay panel: Sigma σ1"}, "in vivo": {"assay": "in vivo", "parameters": "dose or concentration left out as unconfirmed", "settings": "rat"}, "Ryanodine RyR3": {"biological_target": "Ryanodine RyR3 (Rattus norvegicus, UniProt A0ABK0LPH6)", "assay": "Receptor binding assay panel: Ryanodine RyR3"}, "Peptidase, Renin": {"biological_target": "Peptidase, Renin (Homo sapiens (Human), UniProt P00797)", "assay": "Receptor binding assay panel: Peptidase, Renin", "assay_type": "biochemical"}, "[3]": {"biological_target": "Nitric Oxide Synthase, Endothelial (eNOS) (Bos taurus (Bovine), UniProt P29473)", "assay": "Receptor binding assay panel: Nitric Oxide Synthase, Endothelial (eNOS)", "assay_type": "biochemical"}, "Histamine H1": {"biological_target": "Histamine H1 (Homo sapiens (Human), UniProt P35367)", "sequence (P35367 whole entry)": "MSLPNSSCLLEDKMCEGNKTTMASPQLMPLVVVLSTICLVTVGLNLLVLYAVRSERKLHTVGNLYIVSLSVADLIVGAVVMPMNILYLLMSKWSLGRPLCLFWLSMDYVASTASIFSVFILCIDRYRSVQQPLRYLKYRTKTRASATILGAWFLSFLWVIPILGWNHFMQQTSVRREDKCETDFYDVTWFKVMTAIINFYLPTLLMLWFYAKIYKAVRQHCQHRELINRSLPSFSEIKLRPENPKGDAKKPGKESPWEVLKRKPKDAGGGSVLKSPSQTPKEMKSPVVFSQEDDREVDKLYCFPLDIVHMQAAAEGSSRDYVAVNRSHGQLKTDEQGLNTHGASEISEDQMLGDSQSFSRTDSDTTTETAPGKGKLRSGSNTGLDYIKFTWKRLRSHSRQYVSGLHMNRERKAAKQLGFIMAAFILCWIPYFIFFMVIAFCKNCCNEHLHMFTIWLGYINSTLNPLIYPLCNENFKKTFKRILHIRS", "assay": "Receptor binding assay panel: Histamine H1"}, "Adrenergic β2": {"biological_target": "Adrenergic β2 (Homo sapiens (Human), UniProt P07550)", "assay": "Receptor binding assay panel: Adrenergic β2"}, "Monoamine Oxidase MAO-A": {"biological_target": "Monoamine Oxidase MAO-A (Homo sapiens (Human), UniProt P21397)", "sequence (P21397 whole entry)": "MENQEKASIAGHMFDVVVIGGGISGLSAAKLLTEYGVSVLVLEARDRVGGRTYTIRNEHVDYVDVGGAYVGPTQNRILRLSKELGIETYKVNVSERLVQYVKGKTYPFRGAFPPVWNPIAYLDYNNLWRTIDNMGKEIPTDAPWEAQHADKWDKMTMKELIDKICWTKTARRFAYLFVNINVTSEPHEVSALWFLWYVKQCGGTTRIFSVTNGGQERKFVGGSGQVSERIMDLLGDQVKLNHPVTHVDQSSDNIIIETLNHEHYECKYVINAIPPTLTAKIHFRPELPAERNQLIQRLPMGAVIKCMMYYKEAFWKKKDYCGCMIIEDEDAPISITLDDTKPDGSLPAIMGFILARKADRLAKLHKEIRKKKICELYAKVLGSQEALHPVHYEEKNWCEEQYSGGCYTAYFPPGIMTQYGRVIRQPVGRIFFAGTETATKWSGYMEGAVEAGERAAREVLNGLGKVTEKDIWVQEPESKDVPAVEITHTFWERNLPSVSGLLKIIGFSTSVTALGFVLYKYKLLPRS", "assay": "Receptor binding assay panel: Monoamine Oxidase MAO-A", "assay_type": "biochemical"}, "Dopamine D2s": {"biological_target": "Dopamine D2s (Homo sapiens (Human), UniProt P14416)", "assay": "Receptor binding assay panel: Dopamine D2s"}, "Muscarinic M2": {"biological_target": "Muscarinic M2 (Homo sapiens (Human), UniProt P08172)", "assay": "Receptor binding assay panel: Muscarinic M2", "procedure": "(§1) Radioligand binding to a panel of receptors was carried out by Eurofins on crude membrane preparations according to published procedures and by using appropriate reference standard (Eurofin, Taiwan, compound code CVie216-3 (1226840), study #TW04-0004235, quote #TW04-0004235-Q04, for Cvie Therapeutics Limited, Taiwan). […] was tested at the concentration of 10 μM."}, "[4]": {"test_system": "ATPase, Ca2+, skeletal muscle", "assay": "Receptor binding assay panel: ATPase, Ca2+, skeletal muscle", "assay_type": "biochemical, pig", "settings": "10 μM", "procedure": "as §1"}, "[5]": {"biological_target": "Nicotinic Acetylcholine α3β4 (Homo sapiens (Human), UniProt P30926+P32297)", "sequence (P32297 32-505 limits assumed)": "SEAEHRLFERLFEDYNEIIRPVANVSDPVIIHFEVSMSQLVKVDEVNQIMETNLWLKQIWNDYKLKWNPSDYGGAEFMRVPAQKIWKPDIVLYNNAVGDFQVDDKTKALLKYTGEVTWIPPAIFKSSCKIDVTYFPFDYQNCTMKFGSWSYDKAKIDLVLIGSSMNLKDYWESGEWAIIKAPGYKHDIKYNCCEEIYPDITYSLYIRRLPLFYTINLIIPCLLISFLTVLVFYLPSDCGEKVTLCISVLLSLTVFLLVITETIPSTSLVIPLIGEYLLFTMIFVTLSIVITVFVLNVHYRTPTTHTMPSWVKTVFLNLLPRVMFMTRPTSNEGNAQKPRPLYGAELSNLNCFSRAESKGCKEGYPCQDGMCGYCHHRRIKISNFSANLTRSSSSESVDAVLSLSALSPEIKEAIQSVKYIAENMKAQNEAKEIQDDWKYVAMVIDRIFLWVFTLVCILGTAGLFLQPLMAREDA", "sequence (P30926 22-498 limits assumed)": "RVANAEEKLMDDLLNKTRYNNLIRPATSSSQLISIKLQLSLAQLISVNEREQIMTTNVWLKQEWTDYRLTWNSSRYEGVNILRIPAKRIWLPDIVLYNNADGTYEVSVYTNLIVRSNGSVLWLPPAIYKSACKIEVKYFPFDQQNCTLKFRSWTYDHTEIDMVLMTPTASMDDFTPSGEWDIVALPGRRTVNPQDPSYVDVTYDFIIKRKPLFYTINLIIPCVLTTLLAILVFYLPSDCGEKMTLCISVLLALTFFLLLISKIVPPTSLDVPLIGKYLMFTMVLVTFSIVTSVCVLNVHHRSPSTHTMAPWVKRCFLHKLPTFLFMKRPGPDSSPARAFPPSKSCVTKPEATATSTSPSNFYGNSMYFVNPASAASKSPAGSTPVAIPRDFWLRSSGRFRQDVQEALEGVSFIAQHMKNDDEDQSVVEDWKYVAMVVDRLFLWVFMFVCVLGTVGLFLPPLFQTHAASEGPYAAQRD", "assay": "Receptor binding assay panel: Nicotinic Acetylcholine α3β4", "procedure": "as §1"}, "Sigma σ2": {"biological_target": "Sigma σ2 (Homo sapiens (Human), UniProt Q5BJF2)", "assay": "Receptor binding assay panel: Sigma σ2"}, "Dopamine D3": {"biological_target": "Dopamine D3 (Homo sapiens (Human), UniProt P35462)", "assay": "Receptor binding assay panel: Dopamine D3"}, "Adrenergic α1A": {"biological_target": "Adrenergic α1A (Rattus norvegicus (Rat), UniProt P43140)", "assay": "Receptor binding assay panel: Adrenergic α1A"}, "Adrenergic α2A": {"biological_target": "Adrenergic α2A (Homo sapiens (Human), UniProt P08913)", "sequence (P08913 whole entry)": "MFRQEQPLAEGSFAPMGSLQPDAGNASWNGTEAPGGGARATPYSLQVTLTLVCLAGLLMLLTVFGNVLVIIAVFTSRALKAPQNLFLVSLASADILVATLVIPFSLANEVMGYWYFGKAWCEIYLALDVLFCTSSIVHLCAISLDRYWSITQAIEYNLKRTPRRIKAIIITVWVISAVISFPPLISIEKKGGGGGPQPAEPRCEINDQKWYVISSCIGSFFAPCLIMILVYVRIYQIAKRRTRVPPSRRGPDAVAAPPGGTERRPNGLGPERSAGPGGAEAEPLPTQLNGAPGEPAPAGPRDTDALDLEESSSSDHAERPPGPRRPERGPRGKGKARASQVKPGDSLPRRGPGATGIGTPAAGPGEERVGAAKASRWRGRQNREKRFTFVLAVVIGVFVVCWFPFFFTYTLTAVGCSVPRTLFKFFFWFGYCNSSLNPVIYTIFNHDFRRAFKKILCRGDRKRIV", "assay": "Receptor binding assay panel: Adrenergic α2A", "procedure": "as §1"}, "Aldosterone": {"biological_target": "Aldosterone (Rattus norvegicus (Rat), UniProt P22199)", "assay": "Receptor binding assay panel: Aldosterone"}, "[6]": {"test_system": "Glutamate, NMDA, Phencyclidine", "assay": "Receptor binding assay panel: Glutamate, NMDA, Phencyclidine", "parameters": "species or system rat", "settings": "10 μM", "procedure": "as §1"}, "Phosphodiesterase PDE3": {"test_system": "Phosphodiesterase PDE3", "assay": "Receptor binding assay panel: Phosphodiesterase PDE3", "assay_type": "biochemical, Human", "settings": "10 μM"}, "Adrenergic α1B": {"biological_target": "Adrenergic α1B (Rattus norvegicus (Rat), UniProt P15823)", "sequence (P15823 whole entry)": "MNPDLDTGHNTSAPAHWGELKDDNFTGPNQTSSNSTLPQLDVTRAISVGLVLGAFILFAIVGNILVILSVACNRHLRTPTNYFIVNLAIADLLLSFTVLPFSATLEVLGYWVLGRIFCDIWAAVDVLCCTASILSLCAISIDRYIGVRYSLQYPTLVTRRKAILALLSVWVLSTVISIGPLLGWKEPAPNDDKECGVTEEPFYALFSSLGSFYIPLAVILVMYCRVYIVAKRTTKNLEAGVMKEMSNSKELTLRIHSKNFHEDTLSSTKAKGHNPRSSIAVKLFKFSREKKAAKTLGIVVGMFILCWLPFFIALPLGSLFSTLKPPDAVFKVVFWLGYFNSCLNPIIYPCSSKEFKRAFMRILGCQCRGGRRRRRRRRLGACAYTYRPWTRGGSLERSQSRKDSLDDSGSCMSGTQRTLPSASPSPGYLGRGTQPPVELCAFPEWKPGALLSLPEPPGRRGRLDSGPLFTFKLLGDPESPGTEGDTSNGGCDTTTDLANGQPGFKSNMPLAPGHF", "assay": "Receptor binding assay panel: Adrenergic α1B"}, "Angiotensin AT1": {"biological_target": "Angiotensin AT1 (Homo sapiens (Human), UniProt P30556)", "sequence (P30556 whole entry)": "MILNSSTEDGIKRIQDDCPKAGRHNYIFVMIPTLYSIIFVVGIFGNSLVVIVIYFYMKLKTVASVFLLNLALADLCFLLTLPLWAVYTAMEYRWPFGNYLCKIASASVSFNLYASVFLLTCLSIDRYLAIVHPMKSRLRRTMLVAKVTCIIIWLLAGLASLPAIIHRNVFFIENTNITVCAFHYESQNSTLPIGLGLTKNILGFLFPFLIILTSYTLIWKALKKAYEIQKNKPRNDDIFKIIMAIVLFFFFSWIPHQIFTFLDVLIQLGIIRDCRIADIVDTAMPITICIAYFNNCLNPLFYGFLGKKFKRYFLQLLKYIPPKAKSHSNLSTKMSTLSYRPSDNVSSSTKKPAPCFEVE", "assay": "Receptor binding assay panel: Angiotensin AT1"}, "Adenosine A1": {"biological_target": "Adenosine A1 (Homo sapiens (Human), UniProt P30542)", "assay": "Receptor binding assay panel: Adenosine A1"}, "Muscarinic M5": {"biological_target": "Muscarinic M5 (Homo sapiens (Human), UniProt P08912)", "assay": "Receptor binding assay panel: Muscarinic M5", "procedure": "as §1"}, "[7]": {"assay": "Acute toxicity in the mouse", "settings": "Albino Swiss CD-1, in vivo", "procedure": "The acute toxicity of the tested compound CVie214-salt and CVie216-salt have been determined in the mouse (Albino Swiss CD-1, body weight 30 g). Compounds have been orally administered or intravenously injected at increasing doses to identify the dose causing 50% mortality. Mortality occurred within 30 min after the administration and survival after 24 h.\nAs comparison, the acute toxicity for the reference compounds Digoxin and Istaroxime were also included. Digoxin refers to literature data (www.lookchem.com, Reference for Digoxin intravenous: Afifi A M, Ammar E M. Pharmacological Research Communications. Vol. 6, Pg. 417, 1974; Reference for Digoxin oral: Archives Internationales de Pharmacodynamie et de Therapie. Vol. 153, Pg. 436, 1965) (Table 3)."}, "Estrogen ERα": {"biological_target": "Estrogen ERα (Homo sapiens (Human), UniProt P03372)", "assay": "Receptor binding assay panel: Estrogen ERα"}, "Estrogen ERβ": {"biological_target": "Estrogen ERβ (Homo sapiens (Human), UniProt Q92731)", "assay": "Receptor binding assay panel: Estrogen ERβ"}, "Angiotensin AT2": {"biological_target": "Angiotensin AT2 (Homo sapiens (Human), UniProt P50052)", "assay": "Receptor binding assay panel: Angiotensin AT2"}}, "note": "Counter-ions that a name gives are not always drawn.", "data": [{"smiles": "C[C@]12CC[C@H](CC(=O)O)CC1C(O)CC1C2CC[C@]2(C)C(=O)CCC12", "note": "(stereo in doubt) [CVie216-salt, 2-(6beta-hydroxy-17-oxoandrostane-3-yl) acetic acid]", "values": [{"measurement": "inhibition at 10 µM", "setting": "Adenosine A2A", "value": -1, "unit": "%"}, {"measurement": "inhibition at 10 µM", "setting": "[1]", "value": 7, "unit": "%"}, {"measurement": "inhibition at 10 µM", "setting": "[2]", "value": 2, "unit": "%"}, {"measurement": "inhibition at 10 µM", "setting": "Sigma σ1", "value": 2, "unit": "%"}, {"measurement": "bioavailability", "setting": "in vivo", "value": 16.9, "unit": "%"}, {"measurement": "inhibition at 10 µM", "setting": "Ryanodine RyR3", "value": -10, "unit": "%"}, {"measurement": "inhibition at 10 µM", "setting": "Peptidase, Renin", "value": 7, "unit": "%"}, {"measurement": "inhibition at 10 µM", "setting": "[3]", "value": 2, "unit": "%"}, {"measurement": "inhibition at 10 µM", "setting": "Histamine H1", "value": 12, "unit": "%"}, {"measurement": "inhibition at 10 µM", "setting": "Adrenergic β2", "value": -6, "unit": "%"}, {"measurement": "inhibition at 10 µM", "setting": "Monoamine Oxidase MAO-A", "value": 1, "unit": "%"}, {"measurement": "inhibition at 10 µM", "setting": "Dopamine D2s", "value": -4, "unit": "%"}, {"measurement": "inhibition at 10 µM", "setting": "Muscarinic M2", "value": -20, "unit": "%"}, {"measurement": "% inhib", "setting": "[4]", "value": "−1", "unit": "%"}, {"measurement": "inhibition at 10 µM", "setting": "[5]", "value": -3, "unit": "%"}, {"measurement": "inhibition at 10 µM", "setting": "Sigma σ2", "value": 4, "unit": "%"}, {"measurement": "inhibition at 10 µM", "setting": "Dopamine D3", "value": 0, "unit": "%"}, {"measurement": "inhibition at 10 µM", "setting": "Adrenergic α1A", "value": 5, "unit": "%"}, {"measurement": "inhibition at 10 µM", "setting": "Adrenergic α2A", "value": -2, "unit": "%"}, {"measurement": "inhibition at 10 µM", "setting": "Aldosterone", "value": -3, "unit": "%"}, {"measurement": "% inhib", "setting": "[6]", "value": "−7", "unit": "%"}, {"measurement": "% inhib", "setting": "Phosphodiesterase PDE3", "value": "−25", "unit": "%"}, {"measurement": "inhibition at 10 µM", "setting": "Adrenergic α1B", "value": 6, "unit": "%"}, {"measurement": "inhibition at 10 µM", "setting": "Angiotensin AT1", "value": 1, "unit": "%"}, {"measurement": "inhibition at 10 µM", "setting": "Adenosine A1", "value": -1, "unit": "%"}, {"measurement": "inhibition at 10 µM", "setting": "Muscarinic M5", "value": 0, "unit": "%"}, {"measurement": "LD50 at 24 h", "setting": "[7]; iv", "value": "> 300", "unit": "mg/kg"}, {"measurement": "LD50 at 24 h", "setting": "[7]; oral, os", "value": "> 700", "unit": "mg/kg"}, {"measurement": "inhibition at 10 µM", "setting": "Estrogen ERα", "value": -3, "unit": "%"}, {"measurement": "inhibition at 10 µM", "setting": "Estrogen ERβ", "value": -6, "unit": "%"}, {"measurement": "inhibition at 10 µM", "setting": "Angiotensin AT2", "value": -6, "unit": "%"}]}]}
